Laboratory results as given in publication PMC10815238, “New N-Terminal Fatty-Acid-Modified Melittin Analogs with Potent Biological Activity” (International Journal of Molecular Sciences, 2024).

Key:
E. coli ATCC 25922 = experiment: Salt sensitivity (MIC in the presence of physiological salts); assay type: cell-based, Escherichia coli; parameters: key to MIC, NaCl / MIC, KCl / MIC, MgCl2: MIC in μg/mL (two-fold dilutions 256 to 0.25 μg/mL); settings: for MIC, MgCl2: 1 mM MgCl2, unit not given in Table 4; for MIC, FeCl3: 4 mM FeCl3, unit not given in Table 4; for MIC, KCl: 4.5 mM KCl; for MIC, KCl / MIC, NaCl: unit not given in Table 4; for MIC, NaCl: 150 mM NaCl; for MIC, Control: no added salt, unit not given in Table 4 (Table 3 MIC in μg/mL)
Protocol: (§1) MIC was determined using the broth microdilution method with minor modification. In brief, bacteria (S. aureus ATCC 43300, E. faecalis ATCC 29212, E. coli ATCC 25922, P. aeruginosa ATCC 27853, L. monocytogenes CVCC 3764, B. cereus CVCC 4101, S. Castellani CGMCC 1.1869, and the multidrug-resistant E. coli strain) were cultured in nutrient broth (NB) medium (Macklin, Shanghai, China) to the logarithmic phase and diluted to 1 × 10^6 colony forming units (CFUs)/mL. The MDLs were dissolved to a final concentration of 256~0.25 μg/mL in NB medium using two-fold dilutions. A total of 50 μL of different concentrations of the MDL solutions and an equal volume of bacterial suspension were added to a 96-well plate, which was then incubated at 37 °C for 18 h. The minimum concentrations of the MDLs with no visible growth of bacteria were defined as the corresponding MICs. Media containing bacteria without the MDLs were set as the negative control. Each measurement was performed independently three times.
(§2) This was carried out in triplicate and tested at least twice.

[1] = CD measurements of secondary structure; assay type: physicochemical; settings: 0.5 mg/mL, 25 °C
Protocol: The CD spectra of the MDLs were measured at 25 °C on a Chirascan spectrometer (Applied Photophysics, Surrey, UK) using a quartz cell with a 1.0 mm path length, recording from 180 to 260 nm. A scanning speed of 50 nm/min was used and the bandwidth was 1 nm. The optical path and slit width were 0.1 cm and 0.1 nm, respectively. […], 50% TFE (Macklin, Shanghai, China) was used to mimic the hydrophobic condition of the microbial membrane, and 25 mM SDS (Macklin, Shanghai, China) micelles were used to mimic the negatively charged prokaryotic membrane. The observed ellipticity was converted to molar ellipticity using the following equation: θ=θobs(MRW/10×c×l) where [θ] is the molar ellipticity (deg·cm^2·dmol^−1), θobs is the observed ellipticity corrected for the buffer at a given wavelength (mdeg), MRW is the mean residual molecular weight (molecular weight/number of amino acids), c is the peptide concentration (mg/mL), and l is the path length (cm). Assuming lipopeptides were a two-state model, the percentage in the α-helix structure of the MDLs was calculated using the following equation: α-helical content=−([θ]222 +2000)/30,000×100%

S. aureus ATCC 43300 = experiment: Salt sensitivity (MIC in the presence of physiological salts); assay type: cell-based, Staphylococcus aureus; parameters: key: MIC in μg/mL (two-fold dilutions 256 to 0.25 μg/mL); settings: for MIC, MgCl2: 1 mM MgCl2, unit not given in Table 4; for MIC, FeCl3: 4 mM FeCl3, unit not given in Table 4; for MIC, KCl: 4.5 mM KCl; for MIC, KCl / MIC, NaCl: unit not given in Table 4; for MIC, NaCl: 150 mM NaCl; for MIC, Control: no added salt, unit not given in Table 4 (Table 3 MIC in μg/mL)
Protocol: as §1, §2

[2] = Hydrophobicity assay (RP-HPLC retention time); assay type: physicochemical; settings: chromatographic, ChromCore120 C18 column 4.6 x 250 mm 5 μm; 0.1 mg/mL in deionized water; A 0.1% TFA in water, B 0.1% TFA in acetonitrile; 5% B to 90% B over 30 min; 1 mL/min; UV 220 nm; three independent experiments
Description: The hydrophobicity, amphipathicity, and positive charge distribution of lipopeptides are crucial for their antimicrobial activities. Among these, hydrophobicity has been deemed essential for promoting a hydrophobic interaction with the lipid bilayer, leading to membrane disruption, cytoplasm leakage, and eventual cell death. Lipopeptides with different peptide sequences and chain lengths usually show different hydrophobicities, generating different RTs in the RP-HPLC analysis. The more hydrophobic the lipopeptide, the longer the RT on the column.
Each MDL was dissolved and diluted to 0.1 mg/mL in deionized water (obtained in-house) and then subjected to RP-HPLC on a ChromCore120 C18 column (4.6 × 250 mm, 5 μm) (NanoChrom, Suzhou, China) using 0.1% trifluoroacetic acid (TFA) (Macklin, Shanghai, China) in water as solvent A and 0.1% TFA in acetonitrile (Merck, Darmstadt, Germany) as solvent B. The elution gradient was as follows: 5% B to 90% B over 30 min, 90% B maintained for 2 min, and 90% B to 5% B over 1 min. The flow rate was 1 mL/min and measurements were taken at 220 nm. The retention time was recorded for each MDL.

For `CCCCCC(=O)NCC(=O)N[C@H](C(=O)NCC(=O)N[C@@H](C)C(=O)N[C@H](C(=O)N[C@@H](CC(C)C)C(=O)N[C@@H](CCCCN)C(=O)N[C@H](C(=O)N[C@@H](CC(C)C)C(=O)N[C@H](C(=O)N[C@H](C(=O)NCC(=O)N[C@@H](CC(C)C)C(=O)N1CCC[C@H]1C(=O)N[C@@H](C)C(=O)N[C@@H](CC(C)C)C(=O)N[C@H](C(=O)N[C@@H](CO)C(=O)N[C@@H](Cc1c[nH]c2ccccc12)C(=O)N[C@H](C(=O)N[C@@H](CCCCN)C(=O)N[C@@H](CCCNC(=N)N)C(=O)N[C@@H](CCCCN)C(=O)N[C@@H](CCCNC(=N)N)C(=O)N[C@@H](CCC(N)=O)C(=O)N[C@@H](CCC(N)=O)C(N)=O)[C@@H](C)CC)[C@@H](C)CC)[C@@H](C)O)[C@@H](C)O)C(C)C)C(C)C)[C@@H](C)CC` [Peptide C6-Mel], the “MIC, MgCl2” value (E. coli ATCC 25922) was 16, the “MIC, FeCl3” value (E. coli ATCC 25922) was 16 and the “MIC, KCl” value (E. coli ATCC 25922) was 8. The “MIC, NaCl” value (E. coli ATCC 25922) was 4, the “MIC, Control” value (E. coli ATCC 25922) was 4 and the “α-Helix, %” value ([1]; 25 mM SDS) was 18.4%. For the same compound, the “α-Helix, %” value ([1]; 50% TFE) was 22.4%, the “α-Helix, %” value ([1]; PBS Buffer) was 6.5% and the “MIC, MgCl2” value (S. aureus ATCC 43300) was 8. For the same compound, the “MIC, FeCl3” value (S. aureus ATCC 43300) was 8, the “MIC, KCl” value (S. aureus ATCC 43300) was 2 and the “RT, Min (RP-HPLC retention time, measure of hydrophobicity)” value (from here on “RT, Min”) [2] was 15.567 ± 0.006 min.

In the case of `CCCCCCCCCCCC(=O)NCC(=O)N[C@H](C(=O)NCC(=O)N[C@@H](C)C(=O)N[C@H](C(=O)N[C@@H](CC(C)C)C(=O)N[C@@H](CCCCN)C(=O)N[C@H](C(=O)N[C@@H](CC(C)C)C(=O)N[C@H](C(=O)N[C@H](C(=O)NCC(=O)N[C@@H](CC(C)C)C(=O)N1CCC[C@H]1C(=O)N[C@@H](C)C(=O)N[C@@H](CC(C)C)C(=O)N[C@H](C(=O)N[C@@H](CO)C(=O)N[C@@H](Cc1c[nH]c2ccccc12)C(=O)N[C@H](C(=O)N[C@@H](CCCCN)C(=O)N[C@@H](CCCNC(=N)N)C(=O)N[C@@H](CCCCN)C(=O)N[C@@H](CCCNC(=N)N)C(=O)N[C@@H](CCC(N)=O)C(=O)N[C@@H](CCC(N)=O)C(N)=O)[C@@H](C)CC)[C@@H](C)CC)[C@@H](C)O)[C@@H](C)O)C(C)C)C(C)C)[C@@H](C)CC` [Peptide C12-Mel], the “MIC, MgCl2” value (E. coli ATCC 25922) is reported as 128, the “MIC, FeCl3” value (E. coli ATCC 25922) is reported as 128 and the “MIC, KCl” value (E. coli ATCC 25922) is reported as 32. For the same compound, the “MIC, NaCl” value (E. coli ATCC 25922) was 32, the “α-Helix, %” value ([1]; 25 mM SDS) was 15.9% and the “β-Fold, %” value ([1]; 25 mM SDS) was 29.5%. For the same compound, the “α-Helix, %” value ([1]; 50% TFE) was 19%, the “β-Fold, %” value ([1]; 50% TFE) was 21.5% and the “α-Helix, %” value ([1]; PBS Buffer) was 11.5%. For the same compound, the “β-Fold, %” value ([1]; PBS Buffer) was 31.3%, the “MIC, MgCl2” value (S. aureus ATCC 43300) was 64 and the “MIC, FeCl3” value (S. aureus ATCC 43300) was 64. The “MIC, KCl” value (S. aureus ATCC 43300) was 32, the “MIC, NaCl” value (S. aureus ATCC 43300) was 16 and the “MIC, Control” value (S. aureus ATCC 43300) was 8. For the same compound, the “RT, Min” value [2] was 23.344 ± 0.004 min.

With `CCCCCCCCCCCCCCCC(=O)NCC(=O)N[C@H](C(=O)NCC(=O)N[C@@H](C)C(=O)N[C@H](C(=O)N[C@@H](CC(C)C)C(=O)N[C@@H](CCCCN)C(=O)N[C@H](C(=O)N[C@@H](CC(C)C)C(=O)N[C@H](C(=O)N[C@H](C(=O)NCC(=O)N[C@@H](CC(C)C)C(=O)N1CCC[C@H]1C(=O)N[C@@H](C)C(=O)N[C@@H](CC(C)C)C(=O)N[C@H](C(=O)N[C@@H](CO)C(=O)N[C@@H](Cc1c[nH]c2ccccc12)C(=O)N[C@H](C(=O)N[C@@H](CCCCN)C(=O)N[C@@H](CCCNC(=N)N)C(=O)N[C@@H](CCCCN)C(=O)N[C@@H](CCCNC(=N)N)C(=O)N[C@@H](CCC(N)=O)C(=O)N[C@@H](CCC(N)=O)C(N)=O)[C@@H](C)CC)[C@@H](C)CC)[C@@H](C)O)[C@@H](C)O)C(C)C)C(C)C)[C@@H](C)CC` [Peptide C16-Mel] the “MIC, MgCl2” value (E. coli ATCC 25922) was >256, the “MIC, FeCl3” value (E. coli ATCC 25922) was >256 and the “MIC, KCl” value (E. coli ATCC 25922) was 256. For the same compound, the “MIC, NaCl” value (E. coli ATCC 25922) was >256, the “MIC, Control” value (E. coli ATCC 25922) was 128 and the “α-Helix, %” value ([1]; 25 mM SDS) was 15.2%. For the same compound, the “β-Fold, %” value ([1]; 25 mM SDS) was 33%, the “α-Helix, %” value ([1]; 50% TFE) was 14.3% and the “β-Fold, %” value ([1]; 50% TFE) was 26.8%. For the same compound, the “α-Helix, %” value ([1]; PBS Buffer) was 12.5%, the “β-Fold, %” value ([1]; PBS Buffer) was 30.4% and the “MIC, MgCl2” value (S. aureus ATCC 43300) was >256. The “MIC, FeCl3” value (S. aureus ATCC 43300) was >256, the “MIC, KCl” value (S. aureus ATCC 43300) was 256 and the “MIC, NaCl” value (S. aureus ATCC 43300) was 128. The “MIC, Control” value (S. aureus ATCC 43300) was 64 and the “RT, Min” value [2] was 26.892 ± 0.005 min.

For `CCCC(=O)NCC(=O)N[C@H](C(=O)NCC(=O)N[C@@H](C)C(=O)N[C@H](C(=O)N[C@@H](CC(C)C)C(=O)N[C@@H](CCCCN)C(=O)N[C@H](C(=O)N[C@@H](CC(C)C)C(=O)N[C@H](C(=O)N[C@H](C(=O)NCC(=O)N[C@@H](CC(C)C)C(=O)N1CCC[C@H]1C(=O)N[C@@H](C)C(=O)N[C@@H](CC(C)C)C(=O)N[C@H](C(=O)N[C@@H](CO)C(=O)N[C@@H](Cc1c[nH]c2ccccc12)C(=O)N[C@H](C(=O)N[C@@H](CCCCN)C(=O)N[C@@H](CCCNC(=N)N)C(=O)N[C@@H](CCCCN)C(=O)N[C@@H](CCCNC(=N)N)C(=O)N[C@@H](CCC(N)=O)C(=O)N[C@@H](CCC(N)=O)C(N)=O)[C@@H](C)CC)[C@@H](C)CC)[C@@H](C)O)[C@@H](C)O)C(C)C)C(C)C)[C@@H](C)CC` [Peptide C4-Mel], the “MIC, MgCl2” value (E. coli ATCC 25922) was 32, the “MIC, FeCl3” value (E. coli ATCC 25922) was 32 and the “MIC, KCl” value (E. coli ATCC 25922) was 16. The “MIC, NaCl” value (E. coli ATCC 25922) was 8, the “MIC, Control” value (E. coli ATCC 25922) was 8 and the “α-Helix, %” value ([1]; 25 mM SDS) was 19.3%. For the same compound, the “β-Fold, %” value ([1]; 25 mM SDS) was 23.8%, the “α-Helix, %” value ([1]; 50% TFE) was 20.7% and the “β-Fold, %” value ([1]; 50% TFE) was 25.4%. For the same compound, the “α-Helix, %” value ([1]; PBS Buffer) was 6.1%, the “β-Fold, %” value ([1]; PBS Buffer) was 33.7% and the “MIC, MgCl2” value (S. aureus ATCC 43300) was 16. The “MIC, FeCl3” value (S. aureus ATCC 43300) was 16, the “MIC, KCl” value (S. aureus ATCC 43300) was 4 and the “MIC, NaCl” value (S. aureus ATCC 43300) was 2. The “MIC, Control” value (S. aureus ATCC 43300) was 2 and the “RT, Min” value [2] was 13.704 ± 0.005 min.
